Here are results for 18 compounds from the NIST ThermoML archive (doi:10.1016/j.fluid.2018.09.024).

The nature of the data set: activity coefficient (dimensionless); of the first substance listed, at infinite dilution; xn = mol fraction of the nth substance listed. The following applies: 101.33 kPa, Liquid, Chromatography, x1 = 0.

Numbers after ± are expanded uncertainties.

With `Cc1ccccc1C` [1,2-dimethylbenzene] + CCCCCCCCCCCC[N+](C)(C)CCOc1ccccc1.N#C[N-]C#N, the activity coefficient reads like this: (328.15 K) 1.23 ± 0.08; (338.15 K) 1.28 ± 0.08; (348.15 K) 1.32 ± 0.09; (358.15 K) 1.36 ± 0.09; (368.15 K) 1.4 ± 0.09; (378.15 K) 1.43 ± 0.09.

On to `Cc1ccccc1C` [1,2-dimethylbenzene] + CCCCCCCCCCCC[N+](C)(C)CCOc1ccccc1.O=S(=O)([N-]S(=O)(=O)C(F)(F)F)C(F)(F)F, for which the activity coefficient (318.15 K) was 0.783 ± 0.051; the activity coefficient (328.15 K) was found to be 0.83 ± 0.053; the activity coefficient (338.15 K) stood at 0.874 ± 0.056; the activity coefficient (348.15 K) was 0.922 ± 0.058; the activity coefficient (358.15 K) stood at 0.968 ± 0.061; the activity coefficient (368.15 K) was 1.01 ± 0.06.

Take `Cc1cccc(C)c1` [1,3-dimethylbenzene] + CCCCCCCCCCCC[N+](C)(C)CCOc1ccccc1.N#C[N-]C#N: the activity coefficient reads like this: (328.15 K) 1.38 ± 0.09; (338.15 K) 1.44 ± 0.09; (348.15 K) 1.5 ± 0.1; (358.15 K) 1.56 ± 0.1; (368.15 K) 1.61 ± 0.11; (378.15 K) 1.66 ± 0.11.

Take `Cc1cccc(C)c1` [1,3-dimethylbenzene] + CCCCCCCCCCCC[N+](C)(C)CCOc1ccccc1.O=S(=O)([N-]S(=O)(=O)C(F)(F)F)C(F)(F)F: the activity coefficient amounted to 0.847 ± 0.054 (318.15 K); 0.902 ± 0.057 (328.15 K); 0.957 ± 0.06 (338.15 K); 1.01 ± 0.06 (348.15 K); 1.07 ± 0.07 (358.15 K); 1.12 ± 0.07 (368.15 K).

On to `Cc1ccc(C)cc1` [1,4-dimethylbenzene] + CCCCCCCCCCCC[N+](C)(C)CCOc1ccccc1.N#C[N-]C#N, for which the activity coefficient is, setting by setting: (328.15 K) 1.38 ± 0.09; (338.15 K) 1.44 ± 0.09; (348.15 K) 1.5 ± 0.1; (358.15 K) 1.57 ± 0.1; (368.15 K) 1.63 ± 0.11; (378.15 K) 1.69 ± 0.11.

For the compound `Cc1ccc(C)cc1` [1,4-dimethylbenzene] + CCCCCCCCCCCC[N+](C)(C)CCOc1ccccc1.O=S(=O)([N-]S(=O)(=O)C(F)(F)F)C(F)(F)F, the activity coefficient (318.15 K) is 0.861 ± 0.055; the activity coefficient (328.15 K) was 0.916 ± 0.058; the activity coefficient (338.15 K) amounted to 0.967 ± 0.061; the activity coefficient (348.15 K) was found to be 1.02 ± 0.06; the activity coefficient (358.15 K) stood at 1.08 ± 0.07; the activity coefficient (368.15 K) was 1.14 ± 0.07.

Consider `C1COCCO1` [1,4-dioxane] + CCCCCCCCCCCC[N+](C)(C)CCOc1ccccc1.N#C[N-]C#N, for which the activity coefficient (328.15 K) is 0.76 ± 0.05; the activity coefficient (338.15 K) was 0.79 ± 0.051; the activity coefficient (348.15 K) stood at 0.818 ± 0.053; the activity coefficient (358.15 K) was found to be 0.846 ± 0.054; the activity coefficient (368.15 K) turned out to be 0.871 ± 0.056; the activity coefficient (378.15 K) was 0.898 ± 0.057.

For `C1COCCO1` [1,4-dioxane] + CCCCCCCCCCCC[N+](C)(C)CCOc1ccccc1.O=S(=O)([N-]S(=O)(=O)C(F)(F)F)C(F)(F)F, the activity coefficient by setting is: (318.15 K) 0.45 ± 0.036; (328.15 K) 0.483 ± 0.037; (338.15 K) 0.517 ± 0.039; (348.15 K) 0.551 ± 0.04; (358.15 K) 0.584 ± 0.041; (368.15 K) 0.619 ± 0.043.

In the case of `C=CCCCCCCCC` [1-decene] + CCCCCCCCCCCC[N+](C)(C)CCOc1ccccc1.N#C[N-]C#N, the activity coefficient is, setting by setting: (328.15 K) 6.45 ± 0.44; (338.15 K) 6.67 ± 0.45; (348.15 K) 6.83 ± 0.47; (358.15 K) 6.99 ± 0.48; (368.15 K) 7.14 ± 0.49; (378.15 K) 7.22 ± 0.49.

Regarding `C=CCCCCCCCC` [1-decene] + CCCCCCCCCCCC[N+](C)(C)CCOc1ccccc1.O=S(=O)([N-]S(=O)(=O)C(F)(F)F)C(F)(F)F, the activity coefficient runs as follows: (318.15 K) 4.02 ± 0.27; (328.15 K) 4.15 ± 0.28; (338.15 K) 4.27 ± 0.29; (348.15 K) 4.4 ± 0.3; (358.15 K) 4.52 ± 0.31; (368.15 K) 4.63 ± 0.32.

As to `C=CCCCCC` [1-heptene] + CCCCCCCCCCCC[N+](C)(C)CCOc1ccccc1.N#C[N-]C#N, the activity coefficient reads like this: (328.15 K) 4.19 ± 0.29; (338.15 K) 4.28 ± 0.29; (348.15 K) 4.36 ± 0.3; (358.15 K) 4.43 ± 0.3; (368.15 K) 4.51 ± 0.31; (378.15 K) 4.59 ± 0.31.

In the case of `C=CCCCCC` [1-heptene] + CCCCCCCCCCCC[N+](C)(C)CCOc1ccccc1.O=S(=O)([N-]S(=O)(=O)C(F)(F)F)C(F)(F)F, the activity coefficient (318.15 K) was determined as 2.5 ± 0.17; the activity coefficient (328.15 K) turned out to be 2.59 ± 0.18; the activity coefficient (338.15 K) was 2.67 ± 0.18; the activity coefficient (348.15 K) was 2.76 ± 0.19; the activity coefficient (358.15 K) is 2.84 ± 0.19; the activity coefficient (368.15 K) was 2.92 ± 0.2.

Turning to `C#CCCCCC` [1-heptyne] + CCCCCCCCCCCC[N+](C)(C)CCOc1ccccc1.N#C[N-]C#N, the activity coefficient came out at 1.93 ± 0.13 (328.15 K); 2.03 ± 0.14 (338.15 K); 2.12 ± 0.14 (348.15 K); 2.21 ± 0.15 (358.15 K); 2.3 ± 0.16 (368.15 K); 2.4 ± 0.16 (378.15 K).

With `C#CCCCCC` [1-heptyne] + CCCCCCCCCCCC[N+](C)(C)CCOc1ccccc1.O=S(=O)([N-]S(=O)(=O)C(F)(F)F)C(F)(F)F, the activity coefficient runs as follows: (318.15 K) 1.45 ± 0.1; (328.15 K) 1.53 ± 0.1; (338.15 K) 1.61 ± 0.11; (348.15 K) 1.68 ± 0.11; (358.15 K) 1.75 ± 0.12; (368.15 K) 1.83 ± 0.12.

`C#CCCCC` [1-hexyne] + CCCCCCCCCCCC[N+](C)(C)CCOc1ccccc1.N#C[N-]C#N: the activity coefficient amounted to 1.66 ± 0.11 (328.15 K); 1.74 ± 0.12 (338.15 K); 1.82 ± 0.12 (348.15 K); 1.88 ± 0.13 (358.15 K); 1.95 ± 0.13 (368.15 K); 2.02 ± 0.14 (378.15 K).

With `C#CCCCC` [1-hexyne] + CCCCCCCCCCCC[N+](C)(C)CCOc1ccccc1.O=S(=O)([N-]S(=O)(=O)C(F)(F)F)C(F)(F)F, the activity coefficient (318.15 K) turned out to be 1.26 ± 0.08; the activity coefficient (328.15 K) was determined as 1.33 ± 0.09; the activity coefficient (338.15 K) was 1.39 ± 0.09; the activity coefficient (348.15 K) was 1.45 ± 0.1; the activity coefficient (358.15 K) was determined as 1.51 ± 0.1; the activity coefficient (368.15 K) was 1.57 ± 0.1.

As to `CCC[N+](=O)[O-]` [1-nitropropane] + CCCCCCCCCCCC[N+](C)(C)CCOc1ccccc1.N#C[N-]C#N, the activity coefficient runs as follows: (328.15 K) 0.83 ± 0.053; (338.15 K) 0.85 ± 0.055; (348.15 K) 0.868 ± 0.055; (358.15 K) 0.886 ± 0.056; (368.15 K) 0.903 ± 0.057; (378.15 K) 0.92 ± 0.058.

With `CCC[N+](=O)[O-]` [1-nitropropane] + CCCCCCCCCCCC[N+](C)(C)CCOc1ccccc1.O=S(=O)([N-]S(=O)(=O)C(F)(F)F)C(F)(F)F, the activity coefficient is 0.722 ± 0.048 (318.15 K); 0.747 ± 0.049 (328.15 K); 0.77 ± 0.05 (338.15 K); 0.793 ± 0.052 (348.15 K); 0.815 ± 0.053 (358.15 K); 0.837 ± 0.054 (368.15 K).
